Each structure is given as a SMILES string.

The target in the assay is T1, Mlp37p (periplasmic fragment of Mlp37) (Vibrio cholerae, UniProt A0A0H3AES3).
T1 construct: gene VC0395_0316
T1 sequence (A0A0H3AES3 58-303 limits assumed): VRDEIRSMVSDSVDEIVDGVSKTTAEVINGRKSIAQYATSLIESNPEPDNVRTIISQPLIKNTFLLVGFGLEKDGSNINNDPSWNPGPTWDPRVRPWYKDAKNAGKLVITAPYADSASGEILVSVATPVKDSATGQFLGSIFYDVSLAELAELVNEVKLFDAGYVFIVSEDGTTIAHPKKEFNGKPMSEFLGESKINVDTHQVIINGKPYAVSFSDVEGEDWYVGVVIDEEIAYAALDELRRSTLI
The experiment in a line: biochemical.
For the molecule `C[C@H](N)C(=O)O` [L-alanine], the affinity, expressed as Kd, was 2.7 µM. This counts as single-digit micromolar.
The value for `N[C@@H](CO)C(=O)O` [L-serine] was 3.6 µM; that for `NCCS(=O)(=O)O` [taurine, 2-aminoethanesulfonic acid] was 3.2 µM.
On to `N=C(N)NCCC[C@H](N)C(=O)O` [L-arginine], for which binding was characterised by a dissociation constant (Kd) of 5.6 µM. Compared with the last molecule, the Kd is about 1.7-fold higher.

In general, Kd refers to the constant that tells how readily two partners part at equilibrium.
